# Measurements: patent US20160213742A1, “COMPOSITIONS AND METHODS FOR THE TREATMENT OF FUNGAL INFECTIONS” (priority 2013, published 2016)
# Read-outs that look alike come from different tables or passages of the source. Starred links: 1 amine or outer side, 2 acyl side, 3 side chain; linkers in the order of their positions; H or OH if unused. Positions of bridges follow the written chain, without caps; N, C: chain ends. Non-standard residues stand in square brackets, D forms with d. Residues, ends and D or L forms follow the SMILES beside them. Groups on a side chain read outwards from the residue. *: point of attachment. Orn(4R-OH,5R-OCH2CH2NMe3+) = C[N+](C)(C)CCO[C@@H](N[*:3])[C@H](O)C[C@H](N[*:1])C(=O)[*:2]; pTerphenylCO(4''-OnC5H11) = CCCCCOc1ccc(-c2ccc(-c3ccc(C(=O)*)cc3)cc2)cc1; X1 = O=C([C@@H](N[*:1])[C@H](O)[C@@H](O)c1ccc(O)c(N[*:3])c1)[*:2]; Pro(3S-OH,4S-Me) = C[C@H]1CN[C@H](C(=O)O)[C@H]1O; Hyp = O=C(O)[C@@H]1C[C@@H](O)CN1; βAla = NCCC(=O)O; For = O=C*
# Experiments:
# Type in all cases: cell-based
# C. albicans ATCC 90028 [1] = settings: C. albicans ATCC 90028; read at 50% growth inhibition for echinocandins (24 h), 100% for amphotericin B (48 h)
# Description: (§1) MIC and MEC assays were run as described in Example 31 with the following exceptions. Starting solutions of all antifungal agents were prepared in 100% DMSO. Stock concentrations were made at 50× the highest final assay concentration and serially diluted 2-fold, 16 times in a 96-well PCR plate (VWR 83007-374). Candida and Aspergillus suspensions from Sabouraud dextrose agar plate cultures were prepared in 0.85% saline at 0.5 McFarland standard (˜0.1 OD530 nm). Candida suspensions were diluted 1:500 in RPMI (MP Biomedicals, cat no. 1060124; buffered with MOPS and adjusted with NaOH to pH 7.0) to a concentration of ˜0.5-2.5×10^3 CFU/mL and Aspergillus suspensions were diluted 1:50 in RPMI to 0.4-5×10^4 CFU/mL final concentration. 98 μL of each cell suspension in RPMI were added to test wells in a 96-well assay plate (Costar cat. no. 3370). A Beckman Multimek 96 liquid handling robot was used to dispense 2 μL of each 50× stock compound into the plate containing 98 μL of each strain in RPMI (2% final solvent concentration). Plates were shaken then incubated at 35° C. for 24-48 h prior to reading. MIC values were read visually at 50% growth inhibition for echinocandins (24 h) and at 100% growth inhibition for amphotericin B (48 h). MEC values (24 h) were read with the aid of a microscope at the lowest echinocandin concentration where rounded/compact hyphal morphology was observed.
# C. glabrata ATCC 90030 [2] = settings: C. glabrata ATCC 90030; read at 50% growth inhibition for echinocandins (24 h), 100% for amphotericin B (48 h)
# Description: as §1
# C. krusei ATCC 14243 [3] = settings: C. krusei ATCC 14243; read at 50% growth inhibition for echinocandins (24 h), 100% for amphotericin B (48 h)
# Description: as §1
# [4] = system: C. parapsilosis ATCC 22019; settings: C. parapsilosis ATCC 22019; read at 50% growth inhibition for echinocandins (24 h), 100% for amphotericin B (48 h)
# Description: as §1
# C. tropicalis ATCC 750 = settings: C. tropicalis ATCC 750; read at 50% growth inhibition for echinocandins (24 h), 100% for amphotericin B (48 h)
# Description: as §1
# A. flavus ATCC MYA-3631 = assay: MEC assay (Example 32); settings: MEC values (24 h), rounded/compact hyphal morphology
# Description: as §1
# A. fumigatus ATCC 13073 [5] = assay: MEC assay (Example 32); settings: MEC values (24 h), rounded/compact hyphal morphology
# Description: as §1
# A. fumigatus MYA-3626 [6] = assay: MEC assay (Example 32); settings: MEC values (24 h), rounded/compact hyphal morphology
# Description: as §1
# A. fumigatus MYA-4609 [7] = assay: MEC assay (Example 32); settings: MEC values (24 h), rounded/compact hyphal morphology
# Description: as §1
# A. niger ATCC 16404 = assay: MEC assay (Example 32); settings: MEC values (24 h), rounded/compact hyphal morphology
# Description: as §1
# [8] = system: Neutrophils purified from human peripheral blood; assay: Human Neutrophil Transwell Migration Assay; settings: 37° C., 45 minutes, % of the maximum migration possible
# In short: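 Neutrophils (~50,000–100,000) were placed above 5-micron transwell inserts with test compound in the lower chamber and allowed to migrate 45 min at 37° C. Migrated cells were quantified by ATP luminescence; medium-only background was subtracted and values expressed as % of cells added directly to the bottom well.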
# C. albicans ATCC 90028 [9] = assay: microbe, parasite or virus in culture; settings: C. albicans ATCC 90028; RPMI pH 7.0, 35° C., 24-48 hr
# In short: (§2)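 RPMI pH 7.0 (CLSI), 2-fold serial dilutions, 1.25% DMSO final (investigational). Inoc: Candida 0.5 McF 1:100; Aspergillus ~0.2-2.5×10^4 CFU/mL. 35° C., ~24-48 hr. MIC = no visible growth; MEC = small compact hyphae vs growth control.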
# C. glabrata ATCC 90030 [10] = assay: microbe, parasite or virus in culture; settings: C. glabrata ATCC 90030; RPMI pH 7.0, 35° C., 24-48 hr
# In short: as §2
# C. krusei ATCC 14243 [11] = assay: microbe, parasite or virus in culture; settings: C. krusei ATCC 14243; RPMI pH 7.0, 35° C., 24-48 hr
# In short: as §2
# [12] = system: C. parapsilosis ATCC 22019; assay: microbe, parasite or virus in culture; settings: C. parapsilosis ATCC 22019; RPMI pH 7.0, 35° C., 24-48 hr
# In short: as §2
# A. flavus MX 5948 = assay: MEC assay (Example 31); settings: RPMI pH 7.0, 35° C., 24-48 hr
# In short: as §2
# A. fumigatus ATCC 13073 [13] = assay: MEC assay (Example 31); settings: RPMI pH 7.0, 35° C., 24-48 hr
# In short: as §2
# A. fumigatus MX 5944 = assay: MEC assay (Example 31); settings: RPMI pH 7.0, 35° C., 24-48 hr
# In short: as §2
# A. fumigatus MYA-3626 [14] = assay: MEC assay (Example 31); settings: RPMI pH 7.0, 35° C., 24-48 hr
# In short: as §2
# A. fumigatus MYA-4609 [15] = assay: MEC assay (Example 31); settings: RPMI pH 7.0, 35° C., 24-48 hr
# In short: as §2
MIC (C. albicans ATCC 90028 [1]),MIC (C. glabrata ATCC 90030 [2]),MIC (C. krusei ATCC 14243 [3]),MIC [4],MIC (C. tropicalis ATCC 750),Structure (SMILES),MEC (A. flavus ATCC MYA-3631),MEC (A. fumigatus ATCC 13073 [5]),MEC (A. fumigatus MYA-3626 [6]),MEC (A. fumigatus MYA-4609 [7]),MEC (A. niger ATCC 16404),further results
0.5 µg/mL,2 µg/mL,0.5 µg/mL,0.5 µg/mL,0.25 µg/mL,"CCCCCOc1ccc(-c2ccc(-c3ccc(C(=O)N[C@H]4C[C@@H](O)[C@@H](OCC[N+](C)(C)C)NC(=O)[C@@H]5[C@@H](O)[C@@H](C)CN5C(=O)[C@H]([C@@H](C)O)NC(=O)[C@H]([C@H](O)[C@@H](O)c5ccc(O)c(NC(=O)CCNC(=O)[C@H](Cc6ccccc6)NC(=O)[C@H](CC(C)C)NC(=O)[C@H](CCSC)NC=O)c5)NC(=O)[C@@H]5C[C@@H](O)CN5C(=O)[C@H]([C@@H](C)O)NC4=O)cc3)cc2)cc1.O=C[O-] [Compound 31] ({pTerphenylCO(4''-OnC5H11)}-[Orn(4R-OH,5R-OCH2CH2NMe3+)]T[Hyp][X1]([βAla-Phe-Leu-Met-For])T[Pro(3S-OH,4S-Me)]; lactam 1-C)",0.06 µg/mL,0.015 µg/mL,0.06 µg/mL,0.03 µg/mL,0.25 µg/mL,% Neutrophil Migration ([8]; conc 0.001 μg/mL): 126.4%; % Neutrophil Migration ([8]; conc 0.01 μg/mL): 115.7%; % Neutrophil Migration ([8]; conc 0.1 μg/mL): 146.0%; % Neutrophil Migration ([8]; conc 1 μg/mL): 134.3%; % Neutrophil Migration ([8]; conc 10 μg/mL): 64.0%
0.5 µg/mL,1 µg/mL,1 µg/mL,1 µg/mL,1 µg/mL,"C[C@@H]1[C@H](O)[C@@H](C)/C=C/C=C/C=C/C=C/C=C/C=C/C=C/[C@H](O[C@@H]2O[C@H](C)[C@@H](O)[C@H](N)[C@@H]2O)C[C@@H]2O[C@](O)(C[C@@H](O)C[C@@H](O)[C@H](O)CC[C@@H](O)C[C@@H](O)CC(=O)O[C@H]1C)C[C@H](O)[C@H]2C(=O)O [amphotericin B, reference compound]",1 µg/mL,0.25 µg/mL,0.25 µg/mL,1 µg/mL,0.5 µg/mL,MIC (C. albicans ATCC 90028 [9]): 0.12 to 1 µg/mL; MIC (C. glabrata ATCC 90030 [10]): 0.25 to 1 µg/mL; MIC (C. krusei ATCC 14243 [11]): 0.25-2 ^ μg/mL; MIC [12]: 0.5 to 2 µg/mL; MEC (A. flavus MX 5948): 0.5 to 2 µg/mL; MEC (A. fumigatus ATCC 13073 [13]): 0.5 to 4 µg/mL; MEC (A. fumigatus MX 5944): 0.5-2^ μg/mL; MEC (A. fumigatus MYA-3626 [14]): 0.5 to 2 µg/mL; MEC (A. fumigatus MYA-4609 [15]): 0.5 to 4 µg/mL
